The values below come from PubChem BioAssay (NCI).

Holding throughout (assay): growth of human tumour cells (NCI), 48 h
Test [1] concerns OVCAR-8 ovarian.
Test [2] relates to NCI-H23 lung.
Test [3] relates to TK-10 renal.
The test system of test [4] is SK-MEL-5 melanoma.
The subject of test [5] is SW-620 colon.
Test [6] deals with UACC-257 melanoma.
For test [7], the system named is SK-MEL-2 melanoma.
Test [8] relates to HT29 colon.
Test [9] relates to A498 renal.
Test [10] concerns IGROV1 ovarian.

Values joined by “and” are separate entries in the source; they are usually repeats but may differ in a detail not shown here. Identical values can stand only once.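 Grown in 96-well plates, cells were treated for 48 hours with each compound at five concentrations. Insufficient inhibition: endpoint recorded as highest concentration tested. Here, GI50 denotes the concentration required for 50% inhibition of growth. TGI denotes the concentration required for complete inhibition of growth.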 Some results are limits rather than exact numbers.

With `Cc1cccc2c1C(=O)OC2(C)c1cccc2ccccc12` (centres undefined), the TGI is above 100 µM in [1]; above 100 µM in [2]; 95.2 µM in test [3]; 45.3 µM in test [4]; above 100 µM in test [5]; above 100 µM in [6]. Also, the TGI in test [7] and in test [8] was above 100 µM throughout.

Take `CC(=O)c1c[nH]cc1CO`: the TGI in test [1], in test [2], in test [3], in test [9], in test [4] and in test [10] was above 10 µM in each case. Moreover, the TGI in [5] and in test [7] was above 10 µM each time.

On to `O=C(/C=C1/NC(=O)CS1)Nc1ccccc1`, for which the TGI in [1], in test [2], in [3], in test [9], in [4] and in [10] was above 100 µM each time. The TGI in test [5], in test [7] and in test [8] was above 100 µM throughout.

As for `O=C1C[C@@H]2CCCC[C@@H]2C12SCCS2`, the TGI in test [1], in test [2], in [3], in test [9], in test [4] and in test [10] was above 100 µM in each case. Moreover, the TGI in [5], in test [6] and in test [7] was above 100 µM in each case.

With `COc1ccccc1/C=N/N=C(\N)NO`, the TGI is above 100 µM in test [2]; above 100 µM in [9]; 25.6 µM in test [4]; above 100 µM in [10]; above 100 µM in test [5]; above 100 µM in test [6]. Further, the TGI in test [7] and in [8] was above 100 µM throughout.

Turning to `Clc1nc(Cl)c(Cc2ccccc2)c(Cl)n1`, the TGI in test [1] is 19 µM; in test [2], 37.5 µM; in [3] it was 32.2 µM; in test [4] it was 8.39 µM; in [10], 46.7 µM; in test [5], above 100 µM. Besides, the TGI in [7] was above 100 µM; in test [8], 25.3 µM.

With `CC(C)CCc1c(Cl)nc(Cl)nc1Cl`, the TGI in [3] is 35.5 µM; in [4] it was 16.4 µM; in test [10], 37.5 µM; in test [5], above 100 µM; in test [6], 34 µM; in test [7], above 100 µM. For the same compound, the TGI in test [8] was found to be 28.9 µM.

With `COC(=O)[C@@H](C)C[C@H](Cc1ccccc1)NC(=O)c1csc([C@@H](C[C@H](C(C)C)N(C)C(=O)C2(NC(=O)[C@H]3CCCCN3C)CC2)OC(C)=O)n1`, the TGI in test [1] was above 33.3 µM; in test [2] it was above 33.3 µM; in [10], above 33.3 µM; in test [5] it was above 33.3 µM; in test [8], 7.65 µM. For the same compound, the GI50 is 0.0172 µM and 0.00333 µM in test [2]; 0.00858 µM and < 0.00333 µM in test [9]; 0.00374 µM and 0.00333 µM in test [4]; 0.00147 µM and 0.00333 µM in test [10]; 0.00317 µM and 0.00333 µM in test [5]; 0.00411 µM in [7]. The GI50 in test [8] is 0.00351 µM and 0.00333 µM.

For the compound `N#CC(C#N)=C1SCC(=O)CS1`, the TGI in test [1], in test [2], in test [3], in test [9], in test [4] and in test [10] was above 100 µM throughout. In addition, the TGI in test [5], in test [6] and in test [8] was above 100 µM throughout.

Take `Cn1c(=O)c(C(=O)NC(=O)OCc2ccccc2)cn(CCSCCOC(=O)NCCCCCCNC(=O)OCCSCCn2cc(C(=O)NC(=O)OCc3ccccc3)c(=O)n(C)c2=O)c1=O`: the TGI in test [1], in [2], in test [3], in test [9], in test [4] and in [10] was above 100 µM throughout. In addition, the TGI in test [5] and in [7] was above 100 µM in each case.

With `CN(C)c1ccc(O)c2c1C[C@H]1C[C@H]3[C@H](N(C)C)C(=O)C(C(N)=O)=C(O)[C@@]3(O)C(=O)C1=C2O`, the GI50 is 5.11 µM in [1]; 4.95 µM in test [2]; 16 µM in test [3]; 1.49 µM in test [9]; 3.38 µM in [4]; 3.42 µM in [10]. For the same compound, the results for the GI50 in test [5], in test [6] and in test [8] were 5.84 µM, 8.99 µM and 10.2 µM, respectively. The TGI in test [1] was above 100 µM; in [2], 39.7 µM; in test [3] it was above 100 µM; in [9], 10.5 µM; in test [4] it was 14.7 µM; in test [10], 27.8 µM. Also, the TGI in test [5], in test [6] and in [8] was above 100 µM each time.

For `O=C1C(=O)c2ccccc2C(O)=C1CCCCCCCCC1CCCCC1`, the TGI in test [1] was 29.5 µM; in test [2], 14.5 µM; in test [3], 38.7 µM; in [4], 23.7 µM; in [10], 19.2 µM; in test [5], 17.7 µM. For the same compound, the TGI turned out to be 72.8 µM in [6], 30.2 µM in test [7] and 31 µM in test [8].

Regarding `Cc1cc(=O)oc2cc(OCc3nc4ccccc4c(=O)[nH]3)ccc12`, the TGI in test [1], in test [2], in test [3], in test [9], in test [4] and in [10] was above 100 µM each time. Also, the TGI in test [5], in [7] and in test [8] was above 100 µM throughout.

As for `O=C(/C=C/c1ccc(C(F)(F)F)cc1)c1ccc(Nc2nc(NCCO)nc(N3CCOCC3)n2)cc1`, the GI50 is 3.25 µM in [1]; 2.55 µM in test [2]; 1.4 µM in test [9]; 3.16 µM in test [4]; 2 µM in test [10]; 1.92 µM in test [5]. Moreover, the GI50 in [6] is 3.98 µM; in test [7], 8.66 µM; in test [8], 2 µM. For the same compound, the TGI was found to be 12.4 µM in test [1]; 6.97 µM in test [2]; 12 µM in [9]; 10.2 µM in test [4]; 4.42 µM in test [10]; 4.05 µM in [5]. Moreover, the TGI in test [6] was 17.8 µM; in test [7], 21.5 µM; in [8], 4.51 µM.

Regarding `Cc1ccc(/C=C2\CCCC\C2=N\O)cc1`, the TGI in test [1], in [2], in test [3], in test [9], in test [4] and in [10] was above 100 µM in each case. Besides, the TGI in test [5] and in test [8] was above 100 µM each time.

Take `C=CCN=C1NC(=O)C(CC(=O)Nc2ccc(C)cc2)S1` (centres undefined): the TGI in test [1], in test [2], in [3], in [9], in [4] and in test [10] was above 100 µM throughout. Besides, the TGI in test [5], in test [7] and in [8] was above 100 µM each time.

`C=C1CC[C@@H]2[C@](C)(COC(C)=O)[C@H](OC(C)=O)CC[C@@]2(C)[C@@H]1C/C=C1/C(=O)OC[C@H]1OC(C)=O`: the GI50 is 3.38 µM in test [1]; 6.22 µM in test [2]; 3.81 µM in test [3]; 14.4 µM in [9]; 9.5 µM in [4]; 2.41 µM in test [10]. In addition, the GI50 in test [5] is 2.29 µM; in [6], 6.2 µM; in test [7], 10.7 µM. The TGI in test [1] turned out to be 22 µM; in test [2], 23 µM; in test [3] it was 13.3 µM; in test [9], 27.5 µM; in [4] it was 22.4 µM; in test [10], 6.23 µM. Besides, the figures for the TGI in test [5], in test [6] and in test [7] were 5.85 µM, 19.9 µM and 26.3 µM, respectively.

Consider `CC(C)C[C@@H]1NC(=O)[C@@H]2CCCN2C(=O)[C@@H]2CCCN2C(=O)[C@H](CC(C)C)NC(=O)[C@H](CO)NC(=O)[C@H](CCCCN)NC(=O)[C@H]([C@H](C)O)NC(=O)[C@@H]2CCCC[C@@H](NC1=O)C(=O)N[C@@H](Cc1ccccc1)C(=O)N1CCC[C@H]1C(=O)N[C@@H](CC(=O)O)C(=O)NCC(=O)N[C@@H](CCCN=C(N)N)C(=O)N2`, for which the GI50 in test [1], in [2], in test [3], in test [4], in test [10] and in test [5] was above 50 µM throughout. Moreover, the GI50 in test [6], in test [7] and in [8] was above 50 µM throughout. The TGI in [1], in test [2], in [3], in test [4], in test [10] and in [5] was above 50 µM in each case. Further, the TGI in test [6], in [7] and in test [8] was above 50 µM in each case.

`CSC1C(=O)c2ccccc2/C(=N/Nc2nc3ccccc3s2)C1C` (centres undefined): the GI50 in test [1] was 10.7 µM; in [2] it was 11.2 µM; in test [3], 15.6 µM; in [4] it was 1.6 µM; in test [10], 0.648 µM; in test [5], 12.9 µM. For the same compound, the GI50 in test [6] is 8.87 µM; in [7] it was 7.34 µM. The TGI in test [1] was 28.6 µM; in test [2], 28.3 µM; in test [3], 42 µM; in test [4], 9.78 µM; in test [10], 4.22 µM; in [5], 34.1 µM. In addition, the TGI in [6] stood at 18.9 µM; in test [7], 18 µM.

Regarding `COc1cc(C(=O)CC2(O)C(=O)Nc3c(Cl)cc(Cl)cc32)ccc1O` (centres undefined), the TGI in test [1], in [2], in test [3], in [4], in test [5] and in test [6] was above 100 µM each time. Moreover, the TGI in [7] and in test [8] was above 100 µM each time.

`N#C[S-].[Au+].c1ccc(CN2[CH-]N(Cc3ccccc3)C(c3ccccc3)=C2c2ccccc2)cc1`: the GI50 is 0.583 µM in test [3], 0.251 µM in [9], 0.421 µM in test [5] and 0.337 µM in test [7]. Also, the TGI amounted to 1.98 µM in test [3], 0.822 µM in [9], 2.99 µM in test [5] and 1.26 µM in [7].

In the case of `C=CC(=O)Nc1cccc(C)c1Nc1ncc2cc(-c3c(Cl)c(OC)cc(OC)c3Cl)ccc2n1`, the GI50 is 4.83 µM in test [1]; 9.31 µM in test [2]; 3.25 µM in test [3]; 2.61 µM in test [4]; 8.18 µM in test [10]; 3.9 µM in test [5]. Moreover, the results for the GI50 in [6], in [7] and in [8] were 3.43 µM, 4.26 µM and 6.31 µM, respectively. Also, the TGI in [1] was found to be 47 µM; in test [2] it was 34.2 µM; in [3] it was 22.1 µM; in test [4] it was 9.63 µM; in test [10], 26 µM; in test [5], 39.5 µM. The TGI was determined as 68.3 µM in [6], 28.7 µM in test [7] and 67.7 µM in [8].

In the case of `NC(CCSC(F)F)C(=O)O` (centres undefined), the TGI in test [1], in test [2], in test [3], in test [4], in test [10] and in [5] was above 100 µM each time. Also, the TGI in [7] and in test [8] was above 100 µM throughout.

Take `COc1cc([N+](=O)[O-])c(OC)cc1-c1nc2sc(Cl)cn2c1/C=N/NC(=N)N/N=C/c1c(-c2cc(OC)c([N+](=O)[O-])cc2OC)nc2sc(Cl)cn12`: the GI50 is 1.7 µM in [9], 1.66 µM in test [4], 1.85 µM in test [5] and 3.78 µM in [8]. In addition, the TGI in test [9] is 3.13 µM; in test [4], 3.12 µM; in [5], 3.55 µM; in test [8], above 100 µM.
